Values quoted from earlier work, collected in PMC5383348 (Trends in cancer, 2017).

Legend:
[1] = system: cultured cancer cell lines for triple-negative breast cancer and multiple myeloma
[2] = system: xenograft models for triple-negative breast cancer and multiple myeloma
recombinant human GLS = conditions: read-out: IC50 value against recombinant human GLS

O=C(Cc1cccc(OC(F)(F)F)c1)Nc1ccc(CCCCc2nnc(NC(=O)Cc3ccccn3)s2)nn1 [CB-839]
efficacy against cultured cancer cell lines [1]: shown efficacy | efficacy against xenograft models [2]: shown efficacy | IC50 (recombinant human GLS): < 50 nM
